Structure (SMILES) | melting point [°C]
O=C(Nc1ccc(C[C@H](NS(=O)(=O)NCC2CCCCC2)C(=O)O)cc1)c1c(Cl)cncc1Cl | 196
CCN(C(=O)C#Cc1ccccc1)c1ccccc1C1CCCCN1C (stereo unspecified) | 104 to 106
CC(=O)Nc1ccc(C(=O)c2cc(-c3ccncc3)c(N3CCOCC3)s2)cc1 | 139
N#Cc1cc(NC(=O)c2ccn(-c3ccc(F)cc3)c2)ccc1N1CCCCC1 | 195 to 196
CC1(C)OC(=S)Nc2ccc(-c3cncc(Br)c3)cc21 | 252 to 253
COC(=O)CCc1oc(=O)[nH]c1-c1ccc(Cl)cc1 | 147 to 148
C[Si](C)(C)c1ccc2c(c1)Cc1cc([Si](C)(C)C)ccc1-2 | 117 to 118
C=C(Cl)CSC1=C(O)CC(C)(C)CC1=O | 103 to 106
CCCCCCOc1ccc(C2OCC(C(=O)O)CO2)cc1 (stereo unspecified) | 30
Cc1cc(C(N)=O)ncc1C(c1c(F)ccc(F)c1F)S(=O)(=O)c1ccc(F)c(F)c1 (stereo unspecified) | 200 to 201
O=C(O)C1C=Nc2c(cc(F)cc2[N+](=O)[O-])C1=O (stereo unspecified) | 254 to 256
COCC1COC(Cn2cncn2)(c2ccc(Cl)cc2Cl)O1 (stereo unspecified) | 64 to 74
O=C1c2ccccc2CCC1Cc1ccccc1 (stereo unspecified) | 50 to 51
COc1ccccc1-c1ccc2cnc(Nc3ccc4c(c3)N3CCC4CC3)nn12 | 89 to 95
CCOC(=O)c1c2ccc(CC(=O)NOC(=O)NCCCCN)ccc-2c(C(=O)OCC)c1N | 150
NC(=O)N1CC(Oc2cccc(F)c2)C1 | 169 to 170
O=C1CC(c2ccc(Cl)cc2Cl)c2cc(Br)ccc2O1 (stereo unspecified) | 117 to 118
N#Cc1ccccc1C#CC1(C(F)(F)F)OC(=O)Nc2ccc(Cl)cc21 (racemic) | 245 to 246
CC(C)(C)c1ccc(N2CCNCC2)cc1 | 48 to 52

Structure (SMILES) | melting point [°C]
CCOC(=O)c1c(CCc2ccc(O)cc2)oc2ccc(C#N)cc12 | 182 to 183
Cc1oc(CCOc2ccc(CC3SC(=N)NC3=O)cc2)nc1CC(C)C (stereo unspecified) | 167 to 168
CC1(C)CCc2ccccc2C1n1cncc1C1SCCS1 (stereo unspecified) | 109
Cc1cc2c(C)cc(=O)oc2cc1O | 273
COC[C@]12CCC(=O)C=C1CC[C@@H]1[C@@H]2CC[C@]2(C)[C@@H](C(=O)CO)CC[C@@H]12 | 148 to 149
Cc1c(Cc2ccc(F)c(Cl)c2)sc2c(-c3cccc(C(=O)NCCO)c3)cccc12 | 146 to 147
CCNc1nc(=S)n(CC)c2nc(C3CC3)[nH]c12 | 265
Cc1cccc2c1nc(-c1c(F)cccc1F)n2Cc1ccccc1 | 112 to 117
CCc1ccc(CCOc2ccc(C=C3SC(=O)NC3=O)cc2)nc1 | 166 to 167
CCCCOc1ccc2cc(Br)ccc2c1 | 48 to 50
Cc1ccc(CSc2ccc(Cl)cc2)cc1 | 72 to 73
Cn1nc(N)c2sc3ccccc3c21 | 177 to 178
CCCCCCOc1ccc(-c2ncc(C#N)c(Cl)n2)cc1 | 133
C#CCNC(=O)c1c(Br)cccc1[Si](C)(C)C | 120 to 121
ClCc1ccc(Cl)nc1Cl | 115 to 130
O=C1NC(=O)C(c2ccc(N=Cc3ccc(Cl)c(Cl)c3)cc2)S1 (stereo unspecified) | 216 to 218
COC(=O)c1c(C)noc1C(=O)NC(C)C | 64 to 66
C=CCCCCOc1ccc(OCCCCC=C)cc1 | 29 to 30

Now from value to compound:

melting point [°C] | Structure (SMILES)
165 to 167 | O=C(NO)C(=O)c1ccc(OCCOc2ccc3ccccc3c2)s1
170 to 172 | COc1ccccc1N1CCN(CCn2cnc3sc4c(c3c2=O)CCN(C(C)=O)C4)CC1
150 to 152 | COc1cc(OC)nc(NC(=O)NS(=O)(=O)Nn2cccc2C(=O)N(C)C)n1
154 | CCCCc1nc(S(=O)(=O)c2ccc(OC)cc2)c(C(=O)O)n1Cc1cc2c(cc1Cl)OCO2
156 to 157 | CC1(C)OC(=O)Nc2ccc(-c3cccc(C(=O)c4ccccc4)c3)cc21
91 to 92 | CCOC(=O)c1cccc(-c2nc(-c3ccc(C(C)C)cc3)cs2)c1
167 to 169 | O=C(NCCCn1ccnc1-c1ccccc1)c1cc2ccccc2[nH]1
161 to 162 | CCCCOC(=O)COc1ccc(C(=O)Nc2ccc(C)cc2Sc2ccccc2-c2nnn[nH]2)cc1
94 to 96 | COc1cc(OC)nc(C(O)(C(=O)NS(C)(=O)=O)c2ccccc2)n1 (stereo unspecified)
221 to 222 | COC(=O)c1[nH]c2c(C)ccc(C)c2c1NC(C)=O
265 | N#Cc1cc2c(cc1C(F)(F)F)[nH]c(=O)c(=O)n2OCc1ccccc1
165 to 175 | NC(=O)C[C@H](NS(=O)(=O)c1ccc2c(c1)Sc1ccccc1O2)C(=O)O
225 to 245 | COc1c(CC(=O)O)c2c(c3c1OC(C)(C)C3)C(c1ccccc1)=NC(C)(C)C2
113 to 114 | COC(=O)C(=CN(C)C)N(C)c1cc(-c2ccc(Cl)c(Cl)c2)n(C)n1
157 to 158 | Cc1ccccc1OS(=O)(=O)c1ccc(N2CCN(C)C2=O)cc1
73.5 to 75 | CC(C(=O)N(C)C)n1cc(Cl)c(-c2ccccc2)n1 (stereo unspecified)
162 to 164 | CC1=C(C(=O)OC(C)(C)C)C(c2ccccc2Br)C(C(=O)OC(C)(C)C)=C(C)N1

melting point [°C] | Structure (SMILES)
188 to 189 | COc1cc(OC)cc(N2CCN(C(=O)N(CC(=O)O)c3cc(C)c(C)cc3OC)CC2)c1
207 to 208 | Cc1ccccc1C(=O)Nc1ccc(C(=O)N2Cc3cc(Cl)ccc3Oc3ccccc32)cc1
116 to 117 | COC(=O)c1cc2cc(OCCCl)ccc2s1
245 to 246 | Cc1cccc(C(C)(C)C)c1NC(=O)NC1(c2cccs2)CCCCC1
128 to 129 | Cc1cc(SC(C)C)c(NC(=O)CCCSc2nc3ccccc3o2)c(SC(C)C)n1
173 to 175 | Cn1nc(-c2ccc3ccccc3c2)n(C)c1=S
130 to 132 | C=CC[C@@H]1C[C@@H](COC(c2ccccc2)(c2ccccc2)c2ccccc2)N(Cc2ccc(OC)cc2)C1=O
245 to 247 | COc1ccc(CC(=O)N[C@H]2C[C@H](C(=O)O)Nc3cc(Cl)cc(Cl)c32)cc1 (relative stereo)
151 to 153 | NS(=O)(=O)c1c(Cl)cccc1-c1ccccc1Cl
62.1 to 74.1 | CSC1CCn2c(CCc3ccccc3)nc3cccc1c32 (stereo unspecified)
177 to 178 | CC(C)(C)c1cc(CCc2ccccc2NC(=O)NC2CCCCCC2)cc(C(C)(C)C)c1O
120 to 121 | CN(C)C(=O)c1cn(Cc2ccccc2Cl)nn1
136 to 137 | CC(C)CC1(CC(=O)NO)CC(=O)N(CCc2ccccc2)C1=O (stereo unspecified)
194 to 195 | CCOP(=O)(/C=C/c1cn(-c2ccccc2)nc1OCc1ccc(OCc2nc(-c3ccc(C(=O)O)cc3)oc2C)c(OC)c1)OCC
112 | CC(C)CCNC(=O)c1ccccc1-c1ccccc1CNC(=O)OCc1ccccc1
218 to 219 | CC(C)(C)OC(=O)N[C@H]1C(=O)N[C@H]1CON1C(=O)c2ccccc2C1=O (relative stereo)
135 | CS(=O)(=O)c1cc(Cl)cc(-c2cccnc2-c2cccnc2)c1

Reference: a melting point compilation (Tetko et al.; mined from patent text by program, amines drawn as free bases though some values may be those of a salt)
